# Measurements reported in US9409983B2, “Methods and compositions involving PBEF inhibitors for lung inflammation conditions and diseases” (The Board of Trustess of the University of Illinois, priority 2009, dated 2016).
# “Also recorded” adds a separate entry of the source.
# Tests used:
# [1] = system: C57BL/6 mice; assay: Intratracheal rhPBEF instillation in spontaneously breathing mice (BAL, tissue albumin, cytokines, histology); format: in vivo, mouse
# Description: The first VILI model was designed to produce limited lung injury (VILIa, tidal volume 30 ml/kg), thus allowing assessment of potential synergy with rhPBEF challenge. Male C57BL/6J B6 mice were anesthetized with ketamine/acepromazine, intubated and administered rhPBEF (20 μg/mouse) via an intratracheal (IT) route ˜30 min before ventilator placement (room air, tidal volume 30 ml/kg, 65 breaths/minute, 0 cm H2O PEEP) for 4 hr as previously described (Nonas et al., 2007; Moitra et al., 2007). Groups included a spontaneous breathing group (SB), a spontaneous breathing group challenged with rhPBEF (SB-rhPBEF), a high tidal ventilation group (VILIa), and a high tidal ventilation group with rhPBEF challenge (VILIa-rhPBEF) (n=4-6 all groups).
# BAL fluid recovered as we previously described was used for multiple assays including total BAL protein, and BAL cell differentials (Peng et al., 2004). Tissue albumin content was assessed as previously described (Nonas et al., 2007). Cytokine levels in BAL fluid (IL-1β, IL-6, KC, MIP2, TNF-α) were analyzed by multiplex assays (Bio-Rad, Hercules, Calif., USA). BAL PBEF levels were assayed by a C-terminal ELISA (Phoenix Pharmaceuticals Inc. Belmont, Calif.) and analyzed using the SoftmaxPRO software (Molecular Devices Corp). (See Supplemental Methods).
# We utilized two experimental models of ventilator-induce lung injury in these experiments. Our first approach (VILIa) utilized a VILI protocol with a tidal volume of 30 ml/kg designed to produce limited lung injury in order to allow assessment of potential synergism between delivered PBEF and mechanical ventilation-induced lung injury. Male C57BL/6J mice (8-12 wk old, 24.7±2.0 g) were weighed, anesthetized with ketamine/acepromazine, intubated using a 20 gauge catheter (Medex, Inc, Carlsbad, Calif.) and administered recombinant PBEF ([…] of water) via an intratracheal (IT) route ˜30 min before being placed on mechanical ventilation as we have previously described (Peng et al., 2004). Mice were then connected to Harvard Apparatus ventilator (Boston, Mass.) at room air, tidal volume of 30 ml/kg, 65 breaths/minute, and positive expiratory pressure (PEEP) 0 cm H2O for 4 hr. Groups of mice were randomly allocated to either the spontaneous breathing group (SB) (n=4), the spontaneous breathing challenged with IT rhPBEF group (SB-rhPBEF) (n=6), the high tidal ventilation group (VILIa) (n=6), or high tidal ventilation with rhPBEF group (VILIa-rhPBEF) (n=6). Normal saline (0.2 cc) was given via intraperitoneal injection at the beginning and 2 hours later to all ventilated mice and peak inspiratory pressure was monitored continuously. Temperature was maintained with heat blanket to all mice during experiment.
# Mice underwent bronchioalveolar lavage (BAL) of both lungs with Hank's balanced salt solution (1 mL/mouse), and the recovered BAL fluid was used for assays as we have previously described (Peng et al., 2004). Total protein was measured using the Bio-Rad DC Protein Assay (Bio-Rad Laboratories, Hercules, Calif.) (Peng et al., 2004). Protein results were expressed as mg/ml to allow for comparison to other studies. Lavage samples were centrifuged at 500×g on a refrigerated micro centrifuge for 20 min. The supernatant was decanted and aliquot for protein assays. The BAL cells were resuspended in Hank's balanced salt solution and counted using a hemacytometer using standard techniques.
# Re-suspended BAL cells from lung lavage were centrifuged using a Shandon Cytospin-2 at 600 RPM for 15 min, fixed by air-drying, and stained with Diff-Quik dye for differential counts (Peng et al., 2004). Stained cell slides were evaluated and differentially counted for each individual animal (lymphocyte, neutrophil or a macrophage).
# BAL fluid for cytokine measurements was stored at −80° C. until analysis. […]
# [2] = system: C57BL/6 mice; assay: Lung RNA microarray analysis (SAM dysregulated genes) with RT-PCR and BAL ELISA validation; format: in vivo, mouse
# [3] = spontaneously breathing mice, rhPBEF
# [4] = VILIa-rhPBEF vs. Control, SAM, fold change 2
# [5] = VILIa-rhPBEF vs. VILIa, SAM, fold change 2
# [6] = rhPBEF vs. Control, SAM, fold change 2
substance,measurement,setting,value
"rhPBEF: Recombinant human soluble PBEF/visfatin, a 52 kDa protein containing 465 amino acid residues, purchased from PeproTech",BAL IL-1β,[1]; SB-rhPBEF,55 ± 22 pg/mL
same,BAL TNF-α,[1]; SB-rhPBEF,262 ± 94 pg/mL
same,histologic assessment of lung tissue (hematoxylin and eosin),"[1]; SB-rhPBEF, 20 μg/mouse in 30 μl saline intratracheal",mild inflammation; also recorded: macrophage & neutrophil infiltration and edematous alveolar areas
same,BAL IL-6,[1]; [3],319 ± 67 pg/mL
same,BAL KC,[1]; [3],1388 ± 169 pg/mL
same,BAL MIP-2,[1]; [3],29026 ± 762 pg/mL
same,Significant probe sets,[2]; [4],836
same,Unique Down,[2]; [4],258
same,Unique Up,[2]; [4],432
same,Unique gene (dysregulated genes),[2]; [4],690
same,Significant probe sets,[2]; [5],82
same,Unique Down,[2]; [5],0
same,Unique Up,[2]; [5],65
same,Unique gene (differentially expressed genes),[2]; [5],65
same,"BCL3 DNA microarray, average fold change increase over control",[2]; rhPBEF,7 fold change
same,"BCL3 RNA (RT-PCR), average fold change increase over control",[2]; rhPBEF,4 fold change
same,"CxCL1 (KC) Protein (BAL levels by ELISA), average fold change increase over control",[2]; rhPBEF,43 fold change
same,"CxCL1 (KC) RNA (RT-PCR), average fold change increase over control",[2]; rhPBEF,146 fold change
same,"CxCL2 (MIP2α) DNA microarray, average fold change increase over control",[2]; rhPBEF,2290 fold change
same,"CxCL2 (MIP2α) Protein (BAL levels by ELISA), average fold change increase over control",[2]; rhPBEF,115 fold change
same,"CxCL2 (MIP2α) RNA (RT-PCR), average fold change increase over control",[2]; rhPBEF,613 fold change
same,"IL-1-β DNA microarray, average fold change increase over control",[2]; rhPBEF,70 fold change
same,"IL-1-β Protein (BAL levels by ELISA), average fold change increase over control",[2]; rhPBEF,3 fold change
same,"IL-6 DNA microarray, average fold change increase over control",[2]; rhPBEF,240 fold change
same,"IL-6 Protein (BAL levels by ELISA), average fold change increase over control",[2]; rhPBEF,9 fold change
same,"MMP9 DNA microarray, average fold change increase over control",[2]; rhPBEF,16 fold change
same,"MMP9 RNA (RT-PCR), average fold change increase over control",[2]; rhPBEF,16 fold change
same,"Map3k8 RNA (RT-PCR), average fold change increase over control",[2]; rhPBEF,1 fold change
same,"TNF-α Protein (BAL levels by ELISA), average fold change increase over control",[2]; rhPBEF,43 fold change
same,"BCL3 RNA (RT-PCR), average fold change increase over control",[2]; rhPBEF VILIa,10 fold change
same,"CxCL1 (KC) Protein (BAL levels by ELISA), average fold change increase over control",[2]; rhPBEF VILIa,45 fold change
same,"CxCL1 (KC) RNA (RT-PCR), average fold change increase over control",[2]; rhPBEF VILIa,148 fold change
same,"CxCL2 (MIP2α) Protein (BAL levels by ELISA), average fold change increase over control",[2]; rhPBEF VILIa,196 fold change
same,"CxCL2 (MIP2α) RNA (RT-PCR), average fold change increase over control",[2]; rhPBEF VILIa,1479 fold change
same,"IL-1-β DNA microarray, average fold change increase over control",[2]; rhPBEF VILIa,87 fold change
same,"IL-1-β Protein (BAL levels by ELISA), average fold change increase over control",[2]; rhPBEF VILIa,3 fold change
same,"IL-6 DNA microarray, average fold change increase over control",[2]; rhPBEF VILIa,900 fold change
same,"IL-6 Protein (BAL levels by ELISA), average fold change increase over control",[2]; rhPBEF VILIa,27 fold change
same,"MMP9 RNA (RT-PCR), average fold change increase over control",[2]; rhPBEF VILIa,1 fold change
same,"Map3k8 DNA microarray, average fold change increase over control",[2]; rhPBEF VILIa,4 fold change
same,"Map3k8 RNA (RT-PCR), average fold change increase over control",[2]; rhPBEF VILIa,2 fold change
same,"TNF-α DNA microarray, average fold change increase over control",[2]; rhPBEF VILIa,23 fold change
same,"TNF-α Protein (BAL levels by ELISA), average fold change increase over control",[2]; rhPBEF VILIa,45 fold change
same,Significant probe sets,[2]; [6],613
same,Unique Up,[2]; [6],375
same,Unique gene (dysregulated genes),[2]; [6],493
